Laboratory results published in ChEMBL document CHEMBL1687904, “Pestaloquinols A and B, isoprenylated epoxyquinols from Pestalotiopsis sp” (J Nat Prod, 2011).

System: HeLa
Assay: Cytotoxicity against human HeLa cells after 48 hrs by MTT assay
Type: functional, cell-based

Row | Structure (SMILES) | IC50 [nM]
1 | CCCCC[C@@H]1OC=C2[C@@H]3OC(C)(C)[C@@H](O)C[C@@]34O[C@H]4C(=O)[C@]23[C@H]1[C@H]1C2=C([C@H]4OC(C)(C)[C@@H](O)C[C@@]45O[C@H]5C2=O)[C@@H]3O[C@@H]1CCCCC [PESTALOQUINOL A] | 1630
2 | CCCCC[C@@H]1O[C@@H]2C3=C(C(=O)[C@@H]4O[C@@]45C[C@H](O)C(C)(C)O[C@H]35)[C@H]1[C@H]1[C@H](CCCCC)OC=C3[C@@H]4OC(C)(C)[C@@H](O)C[C@@]45O[C@H]5C(=O)[C@@]312 [PESTALOQUINOL B] | 880
